Test results published in US12351574B2, “Selective ligands for modulation of GIRK channels” (Northeastern University, priority 2018, dated 2025).

Tests used:
GIRK1/4 = target: T1, GIRK1/4 (Homo sapiens, UniProt P48544+P48549); experiment: two-electrode voltage clamp (TEVC) in Xenopus oocytes expressing GIRK1/4 wild-type; type: cell-based; set-up: expressed in transfected cells; host or cells: Xenopus laevis oocytes (cRNA injection)
T1 sequence (P48549 1-501): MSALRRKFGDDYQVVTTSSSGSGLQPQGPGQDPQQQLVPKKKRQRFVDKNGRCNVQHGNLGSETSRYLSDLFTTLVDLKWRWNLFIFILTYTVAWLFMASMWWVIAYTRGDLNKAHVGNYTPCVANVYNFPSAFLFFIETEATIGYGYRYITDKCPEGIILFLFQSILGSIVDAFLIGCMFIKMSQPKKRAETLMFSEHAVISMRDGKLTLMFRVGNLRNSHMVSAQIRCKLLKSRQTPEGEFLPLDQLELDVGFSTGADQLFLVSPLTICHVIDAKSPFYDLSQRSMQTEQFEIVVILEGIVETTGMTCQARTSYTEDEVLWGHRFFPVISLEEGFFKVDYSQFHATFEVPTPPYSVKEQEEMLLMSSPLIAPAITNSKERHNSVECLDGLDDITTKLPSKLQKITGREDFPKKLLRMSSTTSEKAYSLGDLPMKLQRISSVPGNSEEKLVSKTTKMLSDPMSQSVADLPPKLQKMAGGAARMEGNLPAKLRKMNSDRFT
T1 sequence (P48544 1-419): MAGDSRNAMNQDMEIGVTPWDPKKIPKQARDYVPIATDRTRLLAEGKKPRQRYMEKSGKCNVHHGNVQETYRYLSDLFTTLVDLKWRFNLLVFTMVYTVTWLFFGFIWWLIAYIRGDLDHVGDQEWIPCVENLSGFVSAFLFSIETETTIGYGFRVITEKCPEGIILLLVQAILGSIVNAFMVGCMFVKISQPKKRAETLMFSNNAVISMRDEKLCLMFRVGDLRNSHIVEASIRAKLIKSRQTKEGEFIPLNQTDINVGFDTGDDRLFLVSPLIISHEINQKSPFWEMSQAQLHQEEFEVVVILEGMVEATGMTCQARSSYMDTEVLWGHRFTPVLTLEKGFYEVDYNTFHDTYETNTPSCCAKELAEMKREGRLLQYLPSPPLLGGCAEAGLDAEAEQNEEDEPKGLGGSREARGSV
Text: Molecular biology: For Xenopus oocyte expression, human GIRK1 and human GIRK4 cDNAs were subcloned into pGEMHE. For mammalian expression, human GIRK1 and human GIRK4 cDNAs were subcloned into pcDNA3 and pcDNA3.1/V5-His B, respectively (Invitrogen). Mouse GIRK2 cDNA was subcloned in the dual-function vector, pXoom. Point mutations were introduced using a standard Pfu-based mutagenesis technique according to the QuikChange protocol (Agilent). Mutations were verified by sequencing.
Xenopus laevis oocyte expression: Plasmid DNAs of GIRK channel subunits were linearized prior to in vitro transcription. Capped RNAs were transcribed using mMESSAGE mMACHINE T7 Transcription Kit (Thermo Fisher Scientific). Xenopus oocytes were surgically extracted, dissociated and defolliculated by collagenase treatment, and microinjected with 50 nl of a water solution containing 1 ng of each GIRK subunit RNA. For TEVC experiments, oocytes were kept 2 days at 17° C. before recording, while for NPo experiments oocytes were incubated for up to 4 days at 17° C.
Xenopus laevis oocyte expression: All cDNA constructs in the pGEMHE vector were linearized using the NheI restriction enzyme, whereas those in the pXoom vector were linearized using the XhoI restriction enzyme. Linearized cDNAs were in vitro-transcribed using the mMessage mMachine® kit (Ambion) kit. Complementary RNA (cRNA) concentrations were quantified by optical density. Xenopus oocytes were surgically extracted, dissociated, and defolliculated by collagenase treatment and microinjected with 50 nl of the desired cRNAs diluted in RNAase-free water. The use of Xenopus laevis frogs for this study was approved by the Institutional Animal Care and Use Committee (IACUC) at Northeastern University. All constructs used in this study were injected to achieve between 1-2 ng per oocyte depending on the channel. Oocytes were incubated for 2 days at 18° C.
Electrophysiology of oocytes: Whole-oocyte currents were measured by conventional two-electrode voltage clamp (TEVC) with a GeneClamp 500 amplifier (Axon Instruments). […] Barium-sensitive currents were normalized to average basal current in the vehicle solutions. The HK solution contained the following: 96 mM KCl, 1 mM NaCl, 1 mM MgCl2, 5 mM KOH/HEPES, pH 7.4. The barium solution consisted of HK+10 mM BaCl2. Five to ten oocytes from the same batch (same frog) were recorded for each group, and the experiments were repeated in at least four batches. Data acquisition and analysis were carried out using pClamp9 (Molecular Devices) and OriginPro (Microcal) software.

open-field (OF) test = type: in vivo, rat
Text: Open-field (OF) test: The OF apparatus is a plexiglass open-topped chamber (91.5×91.5×30.5 cm), filmed by a ceiling-mounted CCD camera and illuminated by a 25 W red light bulb placed 2 meters above the center of the chamber. […] The automated tracking system ANY-MAZE (ANY-MAZE, Stoelting Co., Wood Dale, IL, USA) was utilized to measure total distance traveled and mean speed.

[1] = cardiovascular radiotelemetry in freely moving rats; type: in vivo, rat; settings: 30 mg/kg
Procedure: Cardiovascular experiments: Radiotelemetry probes [Cat. no. HD-S11, Data Sciences International, St. Paul, MN, United States] were surgically implanted into the peritoneal cavity and sutured to the muscle wall in order to assess general motor activity and temperature. A pressure transducer was implanted into the femoral artery to assess cardiovascular responses [i.e., mean arterial blood pressure (MAP) and heart rate (HR)]. Animals were injected with selected compounds following a 10 min baseline period and data points were analayzed between 20 min and 60 min after injection. This allowed us to investigate ligand effects without confounding effects of animal handling or the injection itself and to allow the ligand to cross the blood-brain barrier.

[2] = 30 and 60 mg/kg, 30 min after treatment

| SMILES | GAT1508-induced potassium current, GIRK1/4 (in words) (GIRK1/4; 10 μM, 10 mM K+, holding potential −100 mV) | GAT1508-induced thallium current, GIRK1/4 (in words) (GIRK1/4; 10 μM, 10 mM thallium, holding potential −100 mV) | mean speed in the OF test (in words) (open-field (OF) test; 10 and 30 mg/kg i.p.) | total distance travelled in the OF test (in words) (open-field (OF) test; 10 and 30 mg/kg i.p.) | change in heart rate (HR) (in words) [1] | change in locomotor activity (LA) (in words) [1] | change in mean arterial pressure (MAP) (in words) [1] | compound-induced current normalized to the basal current, GIRK1+GIRK4 (GIRK1/4; 10 μM, High Potassium (HK) solution, FIG. 31) | EMAX at GIRK1/4, % relative to ML297 (GIRK1/4; ML297 considered 100%) | EC50 (GIRK1/4; TEVC, Xenopus oocytes, GIRK1/4 wild-type) | EMAX at GIRK1/4 (GIRK1/4; current normalized to basal current) | mean speed in the open arena (in words) (open-field (OF) test; [2]) | total distance traveled in the open arena (in words) (open-field (OF) test; [2]) | change in body temperature (BT) (in words) [1] |
| --- | --- | --- | --- | --- | --- | --- | --- | --- | --- | --- | --- | --- | --- | --- |
| Cc1cc(NC(=O)Nc2ccc(Br)s2)n(-c2ccccc2)n1 [GAT1508, 1-(5-bromothiophen-2-yl)-3-(3-methyl-1-phenyl-1H-pyrazol-5-yl)urea] | not | induced current increases | comparable to the vehicle group | comparable to the vehicle group | no significant changes | no significant changes | no significant changes |  |  |  |  |  |  |  |
| Cc1cc(NC(=O)Nc2ccc(F)c(F)c2)n(-c2ccccc2)n1 [ML297, reference compound] |  |  |  |  | paradoxical long-lasting increases | without affecting significantly | paradoxical long-lasting increases | ~1.75 | 100% | 500 ± 260 nM | 1.60±0.07 | comparable to the vehicle group | comparable to the vehicle group | without affecting significantly |
